# Marks after values point to notes of the source that are not given here.
# Key:
# B16M-F10 cells / HSE = assay: HSE-induced cytotoxicity on adhering B16M-F10 cells in vitro; type: cell-based, mice; settings: for Tumor cells Cytotoxicity (% of adhering): t-RESV 12 μM, t-PTER 40 μM, QUER 20 μM, after 6 hours of incubation, none 15 ± 2
# Source text: C57BL/6J mice were used (male, 10 to 12 weeks old) from IFFA Credo (L'Arbreole, France). The hepatic sinusoidal endothelium (HSE) was separated and identified as described previously (20). The sinusoidal cells were separated in a gradient of 17.5% metrizamide (w/v). The HSE cultures were established and maintained in pyrogen-free DMEM supplemented as described previously for the B16M-F10 cells. Differential adhesion of the endothelial cells to the collagen matrix and washing permitted complete removal of other types of sinusoidal cells (Kupffer's cells, astrocytes, lymphocytes) from the culture flasks.
# The B16M-F10 cells were labeled with 2′,7′-bis-(2-carboxyethyl)-5-(and -6)-carboxyfluorescein acetoxymethyl ester (BCECF-AM; Moleculer Probes, Eugene, Oreg., USA) (10^6 cells were incubated for 20 minutes at 37° C. in 1 ml of DMEM buffered with HEPES that contained 50 μg of BCECF-AM and 5 μl of DMSO). After washing, the cells that contained BCECF-AM were resuspended in DMEM buffered with HEPES without phenol red at a concentration of 2.5×10^6 cells/ml and were added (0.2 ml/well) to the endothelial cell culture (seeded 24 hours previously), as well as to wells of plastic and controls previously treated with collagen. The plates were then incubated at 37° C. and, 20 minutes later, the wells were washed three times with fresh medium, and then their fluorescence was read using a Fluoroskan Ascent FL (Labsystems, Manchester, UK). The number of adhering tumor cells was quantified with arbitrary fluorescence units based on the percentage relative to the initial number of B16M-F10 cells added to the HSE culture (20). The damage caused to the B16M-F10 cells during their adhesion in vitro to the HSE was evaluated as described previously (21) using tumor cells labeled with calcein-AM (Molecular Probes, Eugene, Oreg., USA). The integrity of the B16M-F10 cells cultivated on their own was evaluated by exclusion of trypan blue and measuring the lactate dehydrogenase released to the extracellular medium (22). The other reagents used in the tumoral cytotoxicity experiments were from Sigma.
# Recombinant murine TNF- (2×10^7 U/mg of protein) and recombinant murine interferon-(IFN-; 10^5 U/mg of protein) were obtained from Sigma. […]
# HSE cells, previously cultured for 24 hours [±polyphenol(s), added 12 hours from seeding and removed by washing 60 minutes later], were cocultured with B16M-F10 cells previously cultured for 72 hours [±polyphenol(s), as in FIG. 2]. […] In the tests of endothelium-induced cytotoxicity on the B16M-F10 cells, the tumor damage (expressed as the percentage of tumor cells that lost viability during the incubation period of 4-6 hours, see the methodology) was determined after 6 hours of incubation. […]
# B16M-F10 cells = assay: Inhibition in vitro of the growth of B16M-F10 cells; type: cell-based
# Method: B16M-F10 cells were cultured in Dulbecco's modified Eagle's medium (DMEM; Gibco Labs., Grand Island, N.Y., USA), pH 7.4, supplemented with 10% fetal serum (Gibco), HEPES 10 mM, NaHCO3 40 mM, 100 U/ml of penicillin and 100 μg/ml of streptomycin (20).
# The B16M-F10 melanoma, highly aggressive, is a model that is widely used for investigating metastatic spread and tissue invasion (21), and for this reason was chosen for our studies. In the first group of experiments, we studied the effect in vitro of t-PTER+QUER on the growth of B16M-F10 cells. To reproduce the conditions in vivo after i.v. administration, we incubated B16M-F10 cells in the presence of t-PTER (40 μM) and/or QUER (20 μM) for a limited period (60 minutes) (this represents a value that approximates to the average of the concentrations of PTER and QUER measured in the plasma during the first hour after i.v. administration of 20 mg/kg of each polyphenol (FIG. 2). For comparison, we also used t-RESV (12 μM; selection of this concentration was based on a similar criterion, see the data cited in ref. 14). The polyphenols were added to the incubation medium every 24 hours and, as mentioned, they were only present for 60 minutes.
# Also for comparison, we incubated B16M-F10 cells in the presence of t-PTER+QUER at concentrations representing an approximate average value of the total level of each polyphenol measured in the plasma in the first hour after oral administration (11 μM of PTER and 1 μM of QUER) (see Table 1). Both polyphenols, as free forms, were constantly present in the incubation medium.
# FIG. 2. Inhibition in vitro of the growth of B16M-F10 cells by brief exposure to resveratrol (RESV), pterostilbene (PTER) and/or quercetin (QUER). All the points are mean values±SD corresponding to 5-6 independent experiments. *P<0.05, **P<0.01 compared with the control values.
# [1] = t-PTER 40 μM, QUER 20 μM, t-RESV 12 μM, added every 24 hours, present for 60 minutes
SMILES,Tumor cells Cytotoxicity (% of adhering) (B16M-F10 cells / HSE),inhibition of the growth of B16M-F10 (B16M-F10 cells; [1]),increase of the death of B16M-F10 cells induced by the HSE (B16M-F10 cells / HSE; brief exposure (60 minutes)) [%],"effect on growth of B16M-F10 cells at concentrations found after oral administration (B16M-F10 cells; t-PTER 11 μM and/or QUER 1 μM, constantly present in the medium)",inhibition at 20 µM (B16M-F10 cells; [1]) [%],effect of t-RESV on the percentage inhibition of growth promoted by t-PTER+QUER (B16M-F10 cells; t-RESV 12 μM added to t-PTER 40 μM + QUER 20 μM)
"COc1cc(/C=C/c2ccc(O)cc2)cc(OC)c1 [PTER, pterostilbene]",19 ± 3* % of adhering,40%,–,–,–,–
"O=c1c(O)c(-c2ccc(O)c(O)c2)oc2cc(O)cc(O)c12 [QUER, quercetin]",52 ± 6** % of adhering,–,~48,did not have a significant effect,19,–
"Oc1ccc(C=Cc2cc(O)cc(O)c2)cc1 [RESV, resveratrol, reference compound]",12 ± 3 % of adhering,did not have a significant effect,–,–,–,did not significantly affect
